Results published in US20060263881A1, “Methods of expanding and selecting disease associated T-Cells” (priority 1998, published 2006).
Where “and” joins values, the source holds several entries; their conditions need not be identical. Equal values may be shown once.

How the values were obtained:
[1] = tested on: transmembrane TNFα on SP2/O myeloma cells; settings: murine SP2/O myeloma cells with cleavage-resistant transmembrane TNFα; cited from earlier work
human T-cell lines = assay: Cytolysis after addition of Infliximab and incubation with fresh human serum (complement); assay type: cell-based; settings: versus murine SP2/O myeloma cell results
[2] = tested on: gut T-cell cultures from patients with Crohn's disease
[3] = tested on: gut T-cell cultures from patients with Crohn's disease; assay type: cell-based, human
[4] = tested on: long term cultured gut T-cell cultures C1x, C2x, C4.2; assay type: cell-based, human
[5] = tested on: in vivo activated gut T-lymphocytes (primary cultures C11.3, C12.1, C8.1, C8.3) from patients with Crohn's disease; assay type: cell-based, human; settings: 24 h

Substance: Infliximab: chimeric TNFα antibody with high avidity for transmembrane TNFα (obtained from Centocor)
- Infliximab molecules bound per cell (Scatchard analyses) [1]: about 35000 molecules per cell
- Complement activation / cytolysis by binding of Infliximab (in words) (human T-cell lines): could not confirm
- Amount of propidium iodide and Annexin-FITC positive cells compared with SEA alone (in words) [2]: did not increase
- Induction of apoptosis (in words) [2]: did not induce any apoptosis
- Proliferation rate (in words) [3]: did not change
- SEA induced cytokine production after addition of Infliximab (in words) [4]: reduced
- Reduction of IFNγ production by Infliximab [5]: 68% and 43% and 49% and 56%
- Reduction of TNFα production by Infliximab [5]: 97%
